The source of these data is US20230339878A1, “SLC26A3 INHIBITORS AND USE THEREOF” (THE REGENTS OF THE UNIVERSITY OF CALIFORNIA, priority 2018, published 2023).

For test [1], the system named is mouse distal colonic closed loops. The test is described as follows: Closed distal colonic loop fluid absorption in mice. Particulars: 10 µM intraluminal, 60 min. The class given is in vivo. As to the method:
(§1) Female CD1 mice (age 8-10 weeks) were given free access to Pedialyte (per liter: Na^+ 45 mEq, Cl^- 35 mEq, K^+ 20 mEq, dextrose 25 g; Abbott, Abbot Park, IL) but not solid food for 48 h before experiments. Mice were treated with 500 µL mineral oil once a day rectally (last dose 12 h before surgeries) during this period to evacuate the colon. Closed intestinal loops were isolated as described. Mice were anesthetized with isoflurane and body temperature was maintained during surgery at 36-38° C. using a heating pad. A small abdominal incision was made to expose the distal colon, and one closed distal colonic loop (length 1.5-2 cm) was isolated with sutures in each mouse. Loops were injected with 100 µL phosphate-buffered saline (PBS, pH: 7.4, in mM: 137 NaCl, 2.7 KCl, 8 Na2HPO4, 1.8 KH2PO4, 1 CaCl2, 0.5 MgCl2) without and with 10 µM Compound A1 and/or 10 µM tenapanor (MedChemExpress, Monmouth Junction, NJ). The abdominal incision was closed with sutures, and mice were allowed to recover from anesthesia. Colonic loops were removed at 0 and 60 min (in separate mice) and loop length and weight were measured to quantify fluid absorption. Luminal fluid was emptied with a syringe and pH was measured immediately using AB15 pH Meter (Thermo Fisher Scientific, South San Francisco, CA). In separate studies, mid-jejunal loops (length 2-3 cm, 3-4 loops per mouse) were isolated as described above, injected with 100 µL PBS without or with 10 µM Compound A1 and/or 10 µM tenapanor, and excised at 0 and 30 min to measure loop length and weight.
Closed intestinal loop studies in mice were done to study effects of Compound A1 on fluid absorption. […] Changes in luminal pH were also determined as a semi-quantitative measure of slc26a3-facilitated HCO3^- secretion / C1^- absorption, with slc26a3 inhibition predicted to reduce luminal fluid alkalinization. For these experiments, a phosphate-buffered solution (PBS) without HCO3^- / CO2 was used to avoid confounding effects of luminal carbonic anhydrases. […] Administration of the NHE3 (Na^+/H^+ exchanger 3) inhibitor tenapanor had no effect on weight/length ratio or luminal pH in distal colonic loops.

In test [2] the test system is mouse mid-jejunal closed loops. The test is described as follows: Closed mid-jejunal loop fluid absorption in mice. The class given is in vivo. The conditions noted are these: 10 µM intraluminal, 30 min. As to the method:
as §1

For test [3], the system named is loperamide-treated wild-type mice. The test is described as follows: Loperamide-induced constipation model in wild-type mice. The class given is in vivo. The conditions noted are these: 5 mg/kg oral gavage 1 hour before loperamide, wild-type mice. As to the method: Female CD1 mice (age 8-10 weeks) were administered loperamide (0.3 mg/kg, intraperitoneally, Sigma-Aldrich) to produce constipation. Compound A1 (DRAinh-A250) (5 mg/kg, in saline containing vehicle (5% DMSO and 10% Kolliphor HS 15; Sigma-Aldrich)), tenapanor (5 mg/kg, in vehicle), both compounds (5 mg/kg each, in vehicle), or vehicle alone were administered by oral gavage 1 hour before loperamide. After loperamide injection, mice were placed individually in metabolic cages with ad libitum access to food and water. Stool samples were collected for 3 h, and total stool weight and number of fecal pellets were quantified. To measure stool water content, stool samples were dried at 80° C. for 24 h and water content was calculated as [wet weight-dry weight]/wet weight. Similar studies were done in cystic fibrosis (CF) mice (ΔF508 homozygous) lacking functional CFTR.
Constipation Model in MiceDRAinh-A260 and DRAinh-A270 were tested in a loperamide-induced constipation model in mice. Female CD1 mice (age 8-10 weeks) were administered loperamide (0.3 mg/kg, intraperitoneally, in 5% ethanol in PBS, 0.1 mg/mL final concentration) to produce constipation and vehicle in control mice. DRAinh-A260 (5 mg/kg, in saline with 5% DMSO and 10% Kolliphor HS 15) or DRAinh-A270 (1, 3 or 10 mg/kg, in PBS with 5% DMSO and 20% (2- hydroxypropyl)-β-cyclodextrin) or vehicle alone were administered by oral gavage 1 hour before loperamide (FIG. 11A). After loperamide injection, mice were placed individually in metabolic cages with free access to food and water. Stool samples were collected for 3 hours, and total stool weight and number of fecal pellets were quantified. To measure stool water content, stool samples were dried at 80° C. for 24 hours and water content was calculated as [wet weight-dry weight]/wet weight.

Another test deals with T1, NHE3 (Homo sapiens, UniProt P48764).
T1 sequence (P48764 26-834): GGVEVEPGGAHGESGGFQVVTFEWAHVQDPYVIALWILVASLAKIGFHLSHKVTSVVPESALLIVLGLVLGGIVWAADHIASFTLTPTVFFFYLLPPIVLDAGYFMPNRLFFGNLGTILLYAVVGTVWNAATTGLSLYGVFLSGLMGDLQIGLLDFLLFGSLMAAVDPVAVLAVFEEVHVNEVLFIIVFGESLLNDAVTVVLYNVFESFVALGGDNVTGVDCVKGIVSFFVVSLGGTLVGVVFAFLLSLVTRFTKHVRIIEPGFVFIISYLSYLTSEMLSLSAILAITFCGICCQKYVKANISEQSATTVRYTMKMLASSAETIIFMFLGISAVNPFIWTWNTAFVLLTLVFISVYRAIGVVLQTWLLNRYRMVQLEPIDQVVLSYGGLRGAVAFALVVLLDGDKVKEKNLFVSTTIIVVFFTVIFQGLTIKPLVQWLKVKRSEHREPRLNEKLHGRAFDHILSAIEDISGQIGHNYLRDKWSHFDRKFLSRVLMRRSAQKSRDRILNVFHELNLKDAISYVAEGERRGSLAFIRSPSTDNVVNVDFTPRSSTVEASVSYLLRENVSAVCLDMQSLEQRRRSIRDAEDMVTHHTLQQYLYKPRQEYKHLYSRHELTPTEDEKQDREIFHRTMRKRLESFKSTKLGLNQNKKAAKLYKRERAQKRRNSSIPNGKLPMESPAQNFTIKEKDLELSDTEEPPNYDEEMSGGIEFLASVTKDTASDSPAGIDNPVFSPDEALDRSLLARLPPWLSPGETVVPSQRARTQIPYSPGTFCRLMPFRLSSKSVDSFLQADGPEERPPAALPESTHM
Particulars: Phase 3, IBS-C, treated group (placebo 18.7 %); cited from earlier work.

Molecules are shown by their SMILES. “Also recorded” adds a separate entry of the source.

Consider `CN1Cc2c(Cl)cc(Cl)cc2[C@H](c2cccc(S(=O)(=O)NCCOCCOCCNC(=O)NCCCCNC(=O)NCCOCCOCCNS(=O)(=O)c3cccc([C@@H]4CN(C)Cc5c(Cl)cc(Cl)cc54)c3)c2)C1` [tenapanor, reference compound], for which, in test [1], the “loop weight/length ratio (fluid absorption), distal colonic loops” value is “had no effect” and the “luminal pH, distal colonic loops” value was “had no effect”. For the same compound, in test [2], the “loop weight/length ratio (fluid absorption), mid-jejunal loops” value is given as “fluid absorption was abolished; also recorded: blocked absorption in jejunal”; the “luminal fluid pH, mid-jejunal loops” value is “preventing acidification and producing slight alkalinization”. The “three-hour stool weight, number of pellets and stool water content” value in test [3] was “comparably reduced signs of constipation”. In test [3] (listed as Tenapanor), the “three-hour stool weight, number of pellets and stool water content” value is recorded as “partially prevented”. Also, the “combined pain and stool pattern response rate” value at NHE3 is 27%.
